Assay in all cases: relative viability (nuclei count vs DMSO), 5 days (fraction); higher = more cells survive
Compound in test [1]: C1=CC=C(C(=C1)C2=CC=C(C=C2)C3=CSC4=C3C(=C(C(=O)N4)C#N)O)O + C[C@@H](Oc1cc(-c2cnn(C3CCNCC3)c2)cnc1N)c1c(Cl)ccc(F)c1Cl [Crizotinib] (partner 1 µM)
The method, boiled down:
(§1)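 Nuclei were stained with Hoechst during a one-step fixation (final 0.05% Triton X-100, 1% formaldehyde, 1 ug/ml Hoechst) carried out 5 days after dosing, then counted on 4× images. The cells, lung cancer lines in 1536-well plates, had been dosed by pin tool the day after seeding with one drug alone or a fixed anchor-drug dose plus five library-drug doses (not always all listed) in √10 steps. Relative viability is the nuclei count in treated wells divided by that in vehicle wells, and each value is the median of duplicate plates.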

Compound in the test “TGX 221 + AZD7762”: CC1=CN2C(=O)C=C(N=C2C(=C1)C(C)NC3=CC=CC=C3)N4CCOCC4 [TGX 221] + NC(=O)Nc1cc(-c2cccc(F)c2)sc1C(=O)N[C@H]1CCCNC1 [AZD7762] (partner 0.2 µM)
The method, boiled down: as §1

Compound in test [2]: C1=CC=C(C(=C1)C2=CC=C(C=C2)C3=CSC4=C3C(=C(C(=O)N4)C#N)O)O + O=C(c1cc(Cc2n[nH]c(=O)c3ccccc23)ccc1F)N1CCN(C(=O)C2CC2)CC1 [Olaparib] (partner 8 µM)
The method, boiled down: as §1

Compound in test [3]: O=C(CCCCCCNC(=O)c1cnc(N(c2ccccc2)c2ccccc2)nc1)NO [Ricolinostat] + CCNC(=O)c1noc(-c2cc(C(C)C)c(O)cc2O)c1-c1ccc(CN2CCOCC2)cc1 [Luminespib] (partner 0.01 µM)
In a few lines: as §1

As for NCI-H1792, the relative viability in test [1] (first compound 0.253 µM) was 0.915; in test [1] (first compound 0.8 µM), 1.15; in test [1] (first compound 2.53 µM) it was 1.13; in test [1] (first compound 8 µM) it was 0.43; with TGX 221 + AZD7762 (first compound 0.08 µM) it was 0.625; in the test with TGX 221 + AZD7762 (first compound 0.253 µM), 0.625. In addition, the relative viability with TGX 221 + AZD7762 (first compound 0.8 µM) was 0.602; with TGX 221 + AZD7762 (first compound 2.53 µM), 0.556; with TGX 221 + AZD7762 (first compound 8 µM), 0.418; in test [2] (first compound 0.253 µM), 0.324; in test [2] (first compound 0.8 µM), 0.365; in test [2] (first compound 2.53 µM), 0.317. Moreover, the relative viability stood at 0.389 in test [2] (first compound 8 µM); 0.297 in test [3] (first compound 0.08 µM); 0.417 in test [3] (first compound 0.253 µM); 0.373 in test [3] (first compound 0.8 µM); 0.418 in test [3] (first compound 2.53 µM).

The values above are taken from the supplement of paper PMC10307832.
